# In patent publication US20090306098A1 (Cyclacel Limited, priority 2005, published 2009):
# Experiments:
# [1] = test system: A549 cells; details: A549 (value in parentheses), combined with seliciclib
# Procedure: Experiments were carried out in 96-well plates and the cell lines seeded at a density of 2000/well for A549 and 3000/well for H460. […] Each HDAC inhibitor was then tested in combination with seliciclib using three different treatment regimes: concomitant, seliciclib pre-treatment followed by HDAC inhibitor and HDAC inhibitor pretreatment followed by seliciclib.
# The drug concentrations selected were chosen to span the IC50 values for the drugs tested. In the pre-treatment regimes, the first drug was added 2 h after cells were plated, and left for 24 h. Medium was aspirated and replaced with fresh medium containing the second drug, and incubated for 72 h. The two controls for each sequential treatment involved substituting one of the drug treatments with medium.
# Seliciclib was tested in combination with the indicated HDAC inhibitors in H460 and A549 cell lines, using three different treatment regimes. […] Data are the average of at least three independent experiments (Table 1).
# [2] = test system: H460 cells; test: Calcusyn drug combination (Alamar blue) in H460 cells; type: cell-based; details: HDAC inhibitor combined with seliciclib
# [3] = test system: H460 cells; details: H460, 1×IC50; medium 24 h then seliciclib 24 h; FIG. 6
# [4] = HDAC inhibitor 24 h then seliciclib 72 h
# [5] = seliciclib 24 h then HDAC inhibitor 72 h
Compound,"Combination Index at ED50, HDAC inhibitor pretreatment [1, 4]","Combination Index at ED75, HDAC inhibitor pretreatment [1, 4]","Combination Index at ED90, HDAC inhibitor pretreatment [1, 4]","Combination Index at ED50, Concomitant treatment ([1]; both drugs 72 h)","Combination Index at ED75, Concomitant treatment ([1]; both drugs 72 h)","Combination Index at ED90, Concomitant treatment ([1]; both drugs 72 h)","Combination Index at ED50, Seliciclib pretreatment [1, 5]","Combination Index at ED75, Seliciclib pretreatment [1, 5]","Combination Index at ED90, Seliciclib pretreatment [1, 5]","Combination Index at ED50, HDAC inhibitor pretreatment [2, 4]","Combination Index at ED75, HDAC inhibitor pretreatment [2, 4]","Combination Index at ED90, HDAC inhibitor pretreatment [2, 4]","Combination Index at ED50, Concomitant treatment ([2]; both drugs 72 h)","Combination Index at ED75, Concomitant treatment ([2]; both drugs 72 h)","Combination Index at ED90, Concomitant treatment ([2]; both drugs 72 h)","Combination Index at ED50, Seliciclib pretreatment [2, 5]","Combination Index at ED75, Seliciclib pretreatment [2, 5]","Combination Index at ED90, Seliciclib pretreatment [2, 5]",overall cell cycle distribution [3]
"CCCC(=O)[O-].[Na+] [Butyrate, sodium butyrate]",0.95,0.71,0.60,1.21,0.87,0.64,1.08,0.88,0.75,0.74,0.53,0.40,0.82,0.59,0.44,0.88,0.68,0.57,
"CCCC(CCC)C(=O)[O-].[Na+] [Sodium valproate, sodium 2-propylpentanoate]",,,,,,,,,,,,0.84,,,1.07,,,0.81,
"CC[C@H](CO)Nc1nc(NCc2ccccc2)c2ncn(C(C)C)c2n1 [seliciclib, 2-(1-R-hydroxymethylpropylamino)-6-benzylamino-9-isopropylpurine]",,,,,,,,,,,,,,,,,,,no significant impact
